Experimental data from patent US20100311729A1, “Substituted imidazopyridazines and pyrrolopyrimidines as lipid kinase inhibitors” (priority 2007, published 2010).

Experiments:
Assay type in all cases: biochemical
[1] = molecular target: T1, PI3K beta (Homo sapiens, UniProt P42338); assay: PI3 kinase assay (Kinase-Glo luminescence), PI3K beta; conditions: Enzymatic Data; read-out: PI3K beta IC50 [umol]
T1 construct: for the full-length p110-b subunit are generated and fused by overlapping PCR; His tag (C); made in house; host or cells: baculovirus; Tn5 (Trichoplusia ni) or TiniPro insect cells
T1 sequence (P42338 with tags, fused parts or gaps limits assumed): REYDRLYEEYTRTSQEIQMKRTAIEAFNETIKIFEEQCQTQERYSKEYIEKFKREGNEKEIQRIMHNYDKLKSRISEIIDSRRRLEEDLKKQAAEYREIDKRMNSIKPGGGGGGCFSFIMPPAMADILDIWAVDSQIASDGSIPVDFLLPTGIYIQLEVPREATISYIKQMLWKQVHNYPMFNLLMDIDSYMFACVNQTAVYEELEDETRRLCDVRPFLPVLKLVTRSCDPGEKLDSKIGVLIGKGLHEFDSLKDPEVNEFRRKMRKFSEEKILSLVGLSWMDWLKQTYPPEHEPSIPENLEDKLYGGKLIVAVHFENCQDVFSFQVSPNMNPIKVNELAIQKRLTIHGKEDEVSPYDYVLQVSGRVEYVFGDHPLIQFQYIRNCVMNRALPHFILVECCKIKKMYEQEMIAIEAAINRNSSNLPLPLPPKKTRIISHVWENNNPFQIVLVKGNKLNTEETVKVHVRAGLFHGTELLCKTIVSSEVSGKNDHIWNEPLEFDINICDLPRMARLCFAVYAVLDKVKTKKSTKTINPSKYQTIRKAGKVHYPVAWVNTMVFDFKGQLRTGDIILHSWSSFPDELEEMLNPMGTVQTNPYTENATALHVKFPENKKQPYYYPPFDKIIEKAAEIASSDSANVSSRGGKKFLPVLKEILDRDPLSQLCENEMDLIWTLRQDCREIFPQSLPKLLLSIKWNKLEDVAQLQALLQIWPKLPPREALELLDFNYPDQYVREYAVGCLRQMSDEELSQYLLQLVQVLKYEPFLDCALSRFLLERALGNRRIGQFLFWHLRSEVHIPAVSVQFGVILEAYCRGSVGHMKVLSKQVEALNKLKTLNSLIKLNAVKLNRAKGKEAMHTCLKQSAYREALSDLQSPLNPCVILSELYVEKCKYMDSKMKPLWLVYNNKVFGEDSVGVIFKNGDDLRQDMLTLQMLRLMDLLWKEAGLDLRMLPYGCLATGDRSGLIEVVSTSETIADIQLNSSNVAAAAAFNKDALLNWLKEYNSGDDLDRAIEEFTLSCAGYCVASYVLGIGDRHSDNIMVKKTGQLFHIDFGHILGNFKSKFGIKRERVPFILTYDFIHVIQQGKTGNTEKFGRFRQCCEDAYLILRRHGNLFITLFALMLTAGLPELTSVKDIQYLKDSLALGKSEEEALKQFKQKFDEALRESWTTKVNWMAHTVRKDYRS
In short: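 PI3Kβ (25 nM, BV-949) with 10 μg/mL phosphatidylinositol in Tris pH 7.5/MgCl2/NaCl/CHAPS/DTT buffer; reaction started with 1 μM ATP, 60 min at room temperature. ATP depletion read by Kinase-Glo luminescence; 8-point dilutions, IC50 by four-parameter logistic fit.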

[2] = molecular target: T2, PI3K gamma (Homo sapiens, UniProt P48736); assay: PI3 kinase assay (Kinase-Glo luminescence), PI3K gamma; conditions: Enzymatic Data; read-out: PI3K gamma IC50 [umol]
T2 construct: PI3Kγ BV-950 p110g(D144aa)-C-Term His Tag; His tag (C); made in house; host or cells: construct from the Roger Williams lab (MRC LMB) in pVL1393; baculovirus; Tn5 (Trichoplusia ni) or TiniPro insect cells
T2 sequence (P48736 144-1102 limits assumed): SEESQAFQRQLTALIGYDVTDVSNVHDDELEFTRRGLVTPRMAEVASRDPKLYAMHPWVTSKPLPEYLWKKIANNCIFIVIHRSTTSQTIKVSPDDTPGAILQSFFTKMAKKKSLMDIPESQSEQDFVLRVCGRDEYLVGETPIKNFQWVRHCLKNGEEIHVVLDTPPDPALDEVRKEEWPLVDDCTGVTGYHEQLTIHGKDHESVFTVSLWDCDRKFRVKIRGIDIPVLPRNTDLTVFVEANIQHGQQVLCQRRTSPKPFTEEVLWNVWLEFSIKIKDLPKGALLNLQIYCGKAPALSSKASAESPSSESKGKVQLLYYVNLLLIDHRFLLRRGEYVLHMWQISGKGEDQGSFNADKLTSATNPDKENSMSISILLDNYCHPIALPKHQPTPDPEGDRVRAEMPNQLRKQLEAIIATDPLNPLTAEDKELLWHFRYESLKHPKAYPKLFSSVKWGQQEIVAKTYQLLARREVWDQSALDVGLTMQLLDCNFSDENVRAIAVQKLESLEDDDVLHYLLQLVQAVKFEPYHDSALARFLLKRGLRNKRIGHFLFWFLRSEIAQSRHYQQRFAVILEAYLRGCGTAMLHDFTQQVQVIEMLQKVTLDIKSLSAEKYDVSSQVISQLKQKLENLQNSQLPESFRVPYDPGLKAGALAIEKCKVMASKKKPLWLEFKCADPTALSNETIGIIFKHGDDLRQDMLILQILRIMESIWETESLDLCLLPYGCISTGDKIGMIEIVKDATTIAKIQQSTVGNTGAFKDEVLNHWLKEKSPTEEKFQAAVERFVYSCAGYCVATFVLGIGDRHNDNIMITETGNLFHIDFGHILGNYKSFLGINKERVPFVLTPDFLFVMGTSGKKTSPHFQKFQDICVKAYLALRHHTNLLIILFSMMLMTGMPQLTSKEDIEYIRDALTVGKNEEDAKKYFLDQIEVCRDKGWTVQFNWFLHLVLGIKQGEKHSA
In short: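 Percent inhibition at eight concentrations (typically 10 to 0.003 […]) fitted to a four-parameter logistic model to give IC50. Reaction initiated with ATP; final ATP 1 μM and phosphatidylinositol 10 μg/mL; ATP consumption read by Kinase-Glo luminescence.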

[3] = molecular target: T3, PI3K alfa (Homo sapiens, UniProt P42336); assay: PI3 kinase assay (Kinase-Glo luminescence), PI3K alfa; conditions: Enzymatic Data; read-out: PI3K alfa IC50 [umol]
T3 construct: for the p110-a subunit (with a deletion of the first 20 amino acids); His tag (C); made in house; host or cells: baculovirus; Tn5 (Trichoplusia ni) or TiniPro insect cells
T3 sequence (P42336 with tags, fused parts or gaps limits assumed): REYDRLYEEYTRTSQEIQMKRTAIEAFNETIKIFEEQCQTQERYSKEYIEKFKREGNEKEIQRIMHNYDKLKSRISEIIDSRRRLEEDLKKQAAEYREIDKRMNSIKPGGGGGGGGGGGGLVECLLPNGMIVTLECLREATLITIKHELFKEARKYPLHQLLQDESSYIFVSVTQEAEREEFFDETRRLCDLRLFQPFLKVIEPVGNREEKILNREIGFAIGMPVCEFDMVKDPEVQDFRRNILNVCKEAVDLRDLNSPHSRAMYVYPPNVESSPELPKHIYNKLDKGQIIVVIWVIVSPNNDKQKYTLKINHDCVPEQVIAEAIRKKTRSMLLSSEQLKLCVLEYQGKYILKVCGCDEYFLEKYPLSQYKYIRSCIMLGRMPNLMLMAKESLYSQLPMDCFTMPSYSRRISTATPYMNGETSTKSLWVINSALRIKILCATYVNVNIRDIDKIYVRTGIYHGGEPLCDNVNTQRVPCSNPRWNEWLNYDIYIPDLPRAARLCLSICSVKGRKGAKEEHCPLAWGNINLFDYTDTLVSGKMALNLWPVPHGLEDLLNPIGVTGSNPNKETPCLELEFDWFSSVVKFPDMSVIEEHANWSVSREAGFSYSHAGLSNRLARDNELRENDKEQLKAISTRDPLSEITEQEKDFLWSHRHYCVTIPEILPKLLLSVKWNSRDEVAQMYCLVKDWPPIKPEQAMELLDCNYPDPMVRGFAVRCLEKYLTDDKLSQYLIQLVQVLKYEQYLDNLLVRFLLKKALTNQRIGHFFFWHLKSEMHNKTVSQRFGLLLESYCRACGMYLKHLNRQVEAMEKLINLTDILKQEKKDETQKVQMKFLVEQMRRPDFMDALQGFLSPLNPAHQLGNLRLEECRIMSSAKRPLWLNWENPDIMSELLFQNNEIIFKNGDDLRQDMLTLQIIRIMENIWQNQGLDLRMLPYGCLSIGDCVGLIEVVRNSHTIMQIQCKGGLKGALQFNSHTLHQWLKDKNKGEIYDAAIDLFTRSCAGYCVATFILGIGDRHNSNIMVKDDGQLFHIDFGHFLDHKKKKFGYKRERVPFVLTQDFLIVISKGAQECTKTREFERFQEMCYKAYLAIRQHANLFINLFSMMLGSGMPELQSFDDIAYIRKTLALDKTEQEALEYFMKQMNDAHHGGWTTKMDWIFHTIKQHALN
In short: (§1)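 Recombinant PI3K constructs (alfa 10 nM, delta 10 nM, gamma 150 nM) with 1 μM ATP and 10 μg/mL phosphatidylinositol in Tris pH 7.5, MgCl2, NaCl, CHAPS, DTT; 60 min (alfa, delta) or 120 min (gamma) at room temperature. ATP depletion read by Kinase-Glo luminescence; IC50 from 4-parameter logistic fit over 8 concentrations.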

[4] = molecular target: T4, PI3K delta (Homo sapiens, UniProt O00329); assay: PI3 kinase assay (Kinase-Glo luminescence), PI3K delta; conditions: Enzymatic Data; read-out: PI3K delta IC50 [umol]
T4 construct: for the full-length p110-d subunit are generated and fused by overlapping PCR; His tag (C); made in house; host or cells: baculovirus; Tn5 (Trichoplusia ni) or TiniPro insect cells
T4 sequence (O00329 with tags, fused parts or gaps limits assumed): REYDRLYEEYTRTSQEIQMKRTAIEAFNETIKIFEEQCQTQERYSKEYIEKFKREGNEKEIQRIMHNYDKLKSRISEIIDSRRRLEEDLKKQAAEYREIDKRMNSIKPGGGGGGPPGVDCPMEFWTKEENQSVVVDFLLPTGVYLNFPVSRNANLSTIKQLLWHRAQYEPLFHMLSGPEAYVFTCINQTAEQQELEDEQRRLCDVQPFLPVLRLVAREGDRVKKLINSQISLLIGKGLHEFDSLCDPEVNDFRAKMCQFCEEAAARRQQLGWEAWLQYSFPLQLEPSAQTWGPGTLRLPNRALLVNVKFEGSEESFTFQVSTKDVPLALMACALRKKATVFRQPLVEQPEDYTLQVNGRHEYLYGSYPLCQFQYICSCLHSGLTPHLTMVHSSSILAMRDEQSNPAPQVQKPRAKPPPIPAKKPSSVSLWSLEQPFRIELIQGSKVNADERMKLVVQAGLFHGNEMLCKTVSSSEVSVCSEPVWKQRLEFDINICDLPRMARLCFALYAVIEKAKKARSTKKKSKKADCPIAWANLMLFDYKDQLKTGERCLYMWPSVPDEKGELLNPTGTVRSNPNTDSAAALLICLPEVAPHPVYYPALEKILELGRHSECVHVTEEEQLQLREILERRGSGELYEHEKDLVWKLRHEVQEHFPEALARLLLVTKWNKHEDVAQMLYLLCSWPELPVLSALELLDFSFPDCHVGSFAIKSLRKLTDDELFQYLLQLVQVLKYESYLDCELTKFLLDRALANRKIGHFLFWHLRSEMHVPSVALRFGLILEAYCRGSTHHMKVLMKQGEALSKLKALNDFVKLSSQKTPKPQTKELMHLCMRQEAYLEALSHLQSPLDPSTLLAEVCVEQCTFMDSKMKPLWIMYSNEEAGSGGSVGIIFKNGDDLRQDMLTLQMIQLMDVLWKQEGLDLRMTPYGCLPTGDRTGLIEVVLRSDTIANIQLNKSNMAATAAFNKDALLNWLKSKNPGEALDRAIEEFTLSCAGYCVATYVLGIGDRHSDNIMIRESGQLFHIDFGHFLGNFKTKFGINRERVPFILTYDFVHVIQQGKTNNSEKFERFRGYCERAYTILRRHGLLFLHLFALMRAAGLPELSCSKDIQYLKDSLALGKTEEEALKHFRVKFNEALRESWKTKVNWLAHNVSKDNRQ
In short: as §1

| SMILES | IC50 [1] [nM] | IC50 [2] [nM] | IC50 [3] [nM] | IC50 [4] [nM] |
| --- | --- | --- | --- | --- |
| CC(C)C(=O)NCCCOc1ccc(-c2ccc3ncc(-c4cnc(N)c(C(F)(F)F)c4)n3n2)cc1 [Example 57, N-(3-{4-[3-(6-Amino-5-trifluoro-methyl-pyridin-3-yl)-imidazo [1,2-b]pyridazin-6-yl]-phenoxy}-propyl)-isobutyr-amide] | 3370 | 1040 | 23 | 384 |
| CN(C)C(=O)c1ccc(CNC(=O)c2ccc(-c3cnc4ccc(-c5cnc(N)c(C(F)(F)F)c5)nn34)cc2)cc1 [Example 83, N-(4-N-dimethylacetyl-benzyl)-4-[6-(6-amino-5-trifluoro-methyl-pyridin-3-yl)-imidazo [1,2-b]pyridazin-3-yl]-benzamide] | 166 | 558 | 27 | 23 |
| Nc1ncc(-c2ccc3ncc(-c4ccc(C(=O)N5CCN(CCO)CC5)cc4)n3n2)cc1C(F)(F)F [Example 145] | 508 | 6920 | 97 | 151 |
| CC(C)C(=O)NCCCOc1ccc(-c2ccc3ncc(-c4cnc(N)c(C(F)(F)F)c4)n3n2)cc1OC(F)(F)F [Example 64, N-(3-{4-[3-(6-Amino-5-trifluoro-methyl-pyridin-3-yl)-imidazo [1,2-b]pyridazin-6-yl]-2-trifluoro-methoxy-phenoxy}-propyl)-iso-butyramide] | > 9100 | 316 | 562 | 6810 |
| NCCCOc1ccc(-c2ccc3ncc(-c4cnc(N)c(C(F)(F)F)c4)n3n2)cc1 [Example 56, 5-{6-[4-(3-Amino-propoxy)-phenyl]-imidazo [1,2-b]pyridazin-3-yl}-3-trifluoro-methyl-pyridin-2-ylamine] | 183 | 56 | 203 | 167 |
| Nc1ncc(-c2ccc3ncc(-c4ccc(C(=O)NCCN5CCS(=O)(=O)CC5)cc4F)n3n2)cc1C(F)(F)F [Example 153, 4-[6-(6-Amino-5-trifluoro-methyl-pyridin-3-yl)-imidazo [1,2-b]pyridazin-3-yl]-N-[2-(1,1-dioxo-1lambda*6*- thio-morpholin-4-yl)-ethyl]-3-fluoro-benzamide] | 271 | 1260 | 8 | 13 |
| CN(C)CCN1CCN(C(=O)c2ccc(-c3cnc4ccc(-c5cnc(N)c(C(F)(F)F)c5)nn34)cc2)CC1 [Example 132, {4-[6-(6-Amino-5-trifluoro-methyl-pyridin-3-yl)-imidazo [1,2-b]pyridazin-3-yl]-phenyl}-[4-(2-dimethyl-amino-ethyl)-piperazin-1-yl]-methanone] | 1260 | 2020 | 26 | 52 |
| c1cnn(CCOc2ccc(-c3ccc4ncc(-c5cnc6[nH]ccc6c5)n4n3)cc2)c1 [Example 93, 6-[4-(2-Pyrazol-1-yl-ethoxy)-phenyl]-3-(1H-pyrrolo [2,3-b]pyridin-5-yl)-imidazo [1,2-b] pyridazine] | 6930 | 5840 | 157 | 1270 |
| CCN(CC)CCNC(=O)c1ccc(-c2cnc3ccc(-c4cnc(N)c(C(F)(F)F)c4)nn23)cc1F [Example 108, 4-[6-(6-Amino-5-trifluoro-methyl-pyridin-3-yl)-imidazo [1,2-b]pyridazin-3-yl]-N-(2-diethyl-amino-ethyl)-2-fluoro-benzamide] | 575 | 565 | 91 | 142 |
| NCCCOc1ccc(-c2cnc3ccc(-c4cnc(N)c(C(F)(F)F)c4)nn23)cc1OC(F)(F)F [Example 43, 5-{3-[4-(3-Amino-propoxy)-3-trifluoro-methoxy-phenyl]-imidazo[1,2-b]pyri-dazin-6-yl}-3-trifluoro-methyl-pyridin-2-ylamine] | 528 | 8440 | 472 | 403 |
| Nc1ncc(-c2cnc3ccc(-c4ccc(OCCNC(=O)C5CC5)cc4)nn23)cc1C(F)(F)F [Example 157, Cyclo-propane-carboxylic acid (2-{4-[3-(6-amino-5-trifluoro-methyl-pyridin-3-yl)-imidazo [1,2-b]pyridazin-6-yl]-phenoxy}-ethyl)-amide] | 842 | 2040 | 21 | 202 |
| Nc1ncc(-c2ccc3ncc(-c4ccc(C(=O)N5CCN(CCO)CC5)c(F)c4)n3n2)cc1C(F)(F)F [Example 113, {4-[6-(6-Amino-5-trifluoro-methyl-pyridin-3-yl)-imidazo [1,2-b]pyridazin-3-yl]-2-fluoro-phenyl}-[4-(2-hydroxy-ethyl)-piperazin-1-yl]-methanone] | 68 | 555 | 11 | 13 |
| Nc1ncc(-c2ccc3ncc(-c4ccc(C(=O)NCCN5CCS(=O)(=O)CC5)cc4)n3n2)cc1C(F)(F)F [Example 154, 4-[6-(6-Amino-5-trifluoro-methyl-pyridin-3-yl)-imidazo [1,2-b]pyridazin-3-yl]-N-[2-(1,1-dioxo-1lambda*6*- thio-morpholin-4-yl)-ethyl]-benzamide] | 71 | 267 | 5 | 6 |
| O=C(NCCCOc1ccc(-c2ccc3ncc(-c4cnc5[nH]ccc5c4)n3n2)cc1)C1CC1 [Example 137, Cyclo-propane-carboxylic acid (3-{4-[3-(1H-pyrrolo[2,3-b]pyridin-5-yl)-imidazo [1,2-b]pyridazin-6-yl]-phenoxy}-propyl)-amide] | > 9100 | > 9100 | 138 | 280 |
| COc1cc(-c2ccc3ncc(-c4cnc(N)c(C(F)(F)F)c4)n3n2)ccc1OCCNC(=O)C(C)C [Example 60, N-(2-{4-[3-(6-Amino-5-trifluoro-methyl-pyridin-3-yl)-imidazo [1,2-b]pyridazin-6-yl]-2-methoxy-phenoxy}-ethyl)-isobutyr-amide] | 267 | 159 | 36 | 223 |
| Nc1ncc(-c2cnc3ccc(-c4ccc(OCC5(NC(=O)C6CC6)COC5)cc4)nn23)cc1C(F)(F)F [Example 146, Cyclopropanecarboxylic acid (3-{4-[3-(6-amino-5-trifluoromethyl-pyridin-3-yl)-imidazo[1,2-b]pyridazin-6-yl]-phenoxymethyl}-oxetan-3-yl)-amide] | 2540 | 1730 | 54 | 280 |
| Nc1ncc(-c2cnc3ccc(-c4ccc(OCCn5cccn5)cc4)nn23)cc1C(F)(F)F [Example 92, 5-{6-[4-(2-Pyrazol-1-yl-ethoxy)-phenyl]-imidazo [1,2-b]pyridazin-3-yl}-3-trifluoro-methyl-pyridin-2-ylamine] | 4110 | > 9100 | 573 | 1240 |
| Nc1cnc(-c2cnc3ccc(-c4cnc(N)c(C(F)(F)F)c4)nn23)cn1 [Example 66, 5-[6-(6-Amino-5-trifluoro-methyl-pyridin-3-yl)-imidazo [1,2-b]pyridazin-3-yl]-pyrazin-2-ylamine] | 3 | 479 | 8 | 17 |
| CC(C)(C)OC(=O)N1CCC(Oc2ccc(-c3ccc4ncc(-c5cnc(N)c(C(F)(F)F)c5)n4n3)cc2)CC1 [Example 162, 4-{4-[3-(6-Amino-5-trifluoro-methyl-pyridin-3-yl)-imidazo [1,2-b]pyridazin-6-yl]-phenoxy}-piperidine-1-carboxylic acid tert-butyl ester] | > 9100 | > 9100 | 379 | > 9100 |
| c1cc2cc(-c3cnc4ccc(-c5ccc6c(c5)OCO6)nn34)cnc2[nH]1 [Example 178, 6-Benzo [1,3] dioxol-5-yl-3-(1H-pyrrolo [2,3-b]pyridin-5-yl)-imidazo [1,2-b] pyridazine] | 6190 | > 9100 | 793 | 495 |
| CN(C)CCN1CCN(C(=O)c2ccc(-c3cnc4ccc(-c5cnc(N)c(C(F)(F)F)c5)nn34)cc2F)CC1 [Example 107, {4-[6-(6-Amino-5-trifluoro-methyl-pyridin-3-yl)-imidazo [1,2-b]pyridazin-3-yl]-2-fluoro-phenyl}-[4-(2-dimethyl-amino-ethyl)-piperazin-1-yl]-methanone] | 497 | 827 | 26 | 30 |
